The record followed here is patent publication US5644055A, “Antihypertensive tricyclic azepine derivatives useful as inhibitors of enkephalinase and ACE” (Ciba-Geigy Corporation, priority 1995, dated 1997).

Experiment [1] concerns the target T1, angiotensin-converting enzyme (Oryctolagus cuniculus, UniProt P12822).
T1 sequence (P12822 34-1310): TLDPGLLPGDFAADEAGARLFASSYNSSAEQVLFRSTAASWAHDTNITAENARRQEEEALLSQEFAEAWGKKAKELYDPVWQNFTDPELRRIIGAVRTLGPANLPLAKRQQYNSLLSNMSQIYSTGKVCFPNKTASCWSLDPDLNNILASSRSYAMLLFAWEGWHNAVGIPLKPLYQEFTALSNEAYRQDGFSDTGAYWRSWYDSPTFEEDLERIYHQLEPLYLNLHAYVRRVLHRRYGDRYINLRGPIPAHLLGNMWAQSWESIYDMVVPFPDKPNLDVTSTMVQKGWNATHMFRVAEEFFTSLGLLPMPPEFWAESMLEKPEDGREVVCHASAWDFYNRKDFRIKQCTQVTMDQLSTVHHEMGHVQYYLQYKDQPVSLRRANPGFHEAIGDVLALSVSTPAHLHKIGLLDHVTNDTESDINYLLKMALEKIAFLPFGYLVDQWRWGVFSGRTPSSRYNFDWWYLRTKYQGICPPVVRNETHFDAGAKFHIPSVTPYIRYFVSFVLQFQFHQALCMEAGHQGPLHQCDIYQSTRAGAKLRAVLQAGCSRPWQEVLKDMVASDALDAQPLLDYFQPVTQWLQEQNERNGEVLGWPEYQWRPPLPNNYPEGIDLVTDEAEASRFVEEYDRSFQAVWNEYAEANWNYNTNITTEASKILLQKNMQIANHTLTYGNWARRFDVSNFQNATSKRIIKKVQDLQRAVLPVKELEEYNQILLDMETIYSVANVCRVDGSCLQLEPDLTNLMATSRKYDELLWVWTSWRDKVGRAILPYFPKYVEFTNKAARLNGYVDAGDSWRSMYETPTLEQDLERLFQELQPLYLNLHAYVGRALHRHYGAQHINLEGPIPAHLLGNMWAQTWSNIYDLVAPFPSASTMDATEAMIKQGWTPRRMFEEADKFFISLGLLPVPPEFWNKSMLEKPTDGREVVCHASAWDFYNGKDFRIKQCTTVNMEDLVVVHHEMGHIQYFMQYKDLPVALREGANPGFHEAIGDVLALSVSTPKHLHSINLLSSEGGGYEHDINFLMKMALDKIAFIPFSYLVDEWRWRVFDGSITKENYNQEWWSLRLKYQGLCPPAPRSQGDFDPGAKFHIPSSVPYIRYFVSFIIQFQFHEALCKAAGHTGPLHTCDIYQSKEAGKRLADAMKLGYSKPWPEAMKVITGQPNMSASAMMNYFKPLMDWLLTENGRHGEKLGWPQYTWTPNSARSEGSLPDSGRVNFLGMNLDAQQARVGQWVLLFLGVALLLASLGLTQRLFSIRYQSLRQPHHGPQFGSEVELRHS
In words: in vitro inhibition of the angiotensin-converting enzyme (hippuryl-histidyl-leucine substrate). Type of experiment: biochemical. Particulars: pH 8.3, 30 minutes at 37° C., read-out: IC50, inhibiting ACE in vitro assay. The protocol: (§1) In vitro testing is most appropriate for the free carboxylic acids of the invention. The test compound is dissolved in dimethyl sulfoxide, ethanol, or 0.25M sodium bicarbonate solution, and the solution is diluted with buffer to the desired concentration.
The buffer for the ACE assay is 300 mM NaCl, […] KH2 PO4 (pH 8.3). The reaction is initiated by the addition of 100 μl of hippuryl-histidyl-leucine (2 mg/ml) to tubes containing enzyme and drug in a volume of 150 μl and tubes are incubated for 30 minutes at 37° C. The reaction is terminated by the addition of 0.75 ml 0.6N NaOH. 100 μl of freshly prepared O-pthaldehyde solution (2 mg/ml in methanol) is added to the tubes, the contents are mixed and allowed to stand at room temperature. After 10 minutes, 100 μl of 6N HCl is added. The tubes are centrifuged and the supernatant optical density is read at 360 nm. The results are plotted against drug concentration to determine the IC50, i.e., the drug concentration which gives half the activity of the control sample containing no drug.

In experiment [2] the target is T2, neutral endopeptidase (NEP, EC 3.4.24.11) (Rattus norvegicus, UniProt P07861).
T2 construct: rat kidney cortex membranes; from tissue; host or cells: rat kidney cortex membranes
T2 sequence (P07861 1-750): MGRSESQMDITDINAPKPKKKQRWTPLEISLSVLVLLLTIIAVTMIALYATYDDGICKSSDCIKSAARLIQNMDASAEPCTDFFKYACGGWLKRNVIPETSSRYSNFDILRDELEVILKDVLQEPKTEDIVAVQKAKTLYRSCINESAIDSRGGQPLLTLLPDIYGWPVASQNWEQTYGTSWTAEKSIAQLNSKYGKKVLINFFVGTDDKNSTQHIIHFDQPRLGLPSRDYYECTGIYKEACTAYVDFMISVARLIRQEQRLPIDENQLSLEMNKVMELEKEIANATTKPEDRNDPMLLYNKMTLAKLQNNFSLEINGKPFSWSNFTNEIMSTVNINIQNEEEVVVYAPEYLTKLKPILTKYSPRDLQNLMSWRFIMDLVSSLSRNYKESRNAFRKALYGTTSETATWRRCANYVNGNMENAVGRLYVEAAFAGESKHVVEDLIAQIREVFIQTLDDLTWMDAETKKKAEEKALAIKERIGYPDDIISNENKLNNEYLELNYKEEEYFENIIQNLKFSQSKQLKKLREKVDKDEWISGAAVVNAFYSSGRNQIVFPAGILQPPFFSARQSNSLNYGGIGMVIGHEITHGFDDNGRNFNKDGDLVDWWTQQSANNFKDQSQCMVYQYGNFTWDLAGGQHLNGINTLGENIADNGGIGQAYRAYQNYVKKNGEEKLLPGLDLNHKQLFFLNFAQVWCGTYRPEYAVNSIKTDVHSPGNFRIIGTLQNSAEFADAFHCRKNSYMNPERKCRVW
As to the kind of experiment: in vitro inhibition of neutral endopeptidase (GAAP in vitro assay). Type of experiment: biochemical. Particulars: rat kidney cortex membranes, 500 μM glutaryl-Ala-Ala-Phe-2-naphthylamide, pH 7.4, 10 minutes at 25° C. The protocol:
as §1
The in vitro inhibition of neutral endopeptidase (NEP, EC 3.4.24.11) can be determined as follows:
Neutral endopeptidase 3.4.24.11 activity is determined by the hydrolysis of the substrate glutaryl-Ala-Ala-Phe-2-naphthylamide (GAAP) using a modified procedure of Orlowski and Wilk (1981). The incubation mixture (total volume 125 μl) contains 4.2 μg of protein (rat kidney cortex membranes prepared by method of Maeda et at, 1983), 50 mM tris buffer, pH 7.4 at 25° C., 500 μM substrate (final concentration), and leucine aminopeptidase M (2.5 μg). The mixture is incubated for 10 minutes at 25° C. and 100 μl of fast garnet (250 μg fast garnet/ml of 10% Tween 20 in 1M sodium acetate, pH 4.2) is added. Enzyme activity is measured spectrophotometrically at 540 nm. One unit of NEP 24.11 activity is defined as 1 nmol of 2-naphthylamine released per minute at 25° C. at pH 7.4. IC50 values are determined, i.e. the concentration of test compound required for 50% inhibition of the release of 2-naphthylamine.

For the molecule `O=C(N[C@H]1CCc2cccc3c2N(C1=O)[C@H](C(=O)O)C3)[C@@H](S)Cc1ccccc1` [2(a), 5-[((S)-2-mercapto-3-phenylpropionyl)-(S)-amino]-1,2,4,5,6,7-hexahydroazepino[3,2,1-hi]indole-4-one-2-(S)-carboxylic acid], the IC50 in experiment [1] was about 30 nM; in experiment [2] it was about 50 nM.

In the case of `CC(C)[C@H](S)C(=O)N[C@H]1CCc2cccc3c2N(C1=O)[C@H](C(=O)O)C3` [5(a), 5-[((S)-2-mercapto-3-methylbutanoyl)-(S)-amino]-1,2,4,5,6,7-hexahydro-azepino[3,2,1-hi]indole-4-one-2-(S)-carboxylic acid], the IC50 in experiment [1] was about 30 nM.

Regarding `O=C(N[C@H]1CCc2cccc3c2N(C1=O)[C@H](C(=O)O)C3)[C@@H](CS)Cc1ccc(-c2ccccc2)cc1` [6(b), 5-[((S)-2-biphenyl-4-ylmethyl-3-mercapto-propionyl)-(S)-amino]-1,2,4,5,6,7-hexahydroazepino[3,2,1-hi]indole-4-one-2-(S)-carboxylic acid], the values for the IC50 in experiment [1] and in experiment [2] were about 77 nM and about 15 nM, respectively.

One may read the IC50 as the point on the concentration scale where inhibition reaches its midpoint.
